# Values joined by “and” are separate entries in the source; they are usually repeats but may differ in a detail not shown here. Equal entries are not always repeated. Where two headings read alike, the source gives them in different places.
# What was measured:
# [1] = Pharmacokinetic study in rats after oral and intratracheal administration of curcumin (plasma, LC-MS/MS); type: in vivo, Sprague-Dawley rats
# Method: This preparation was then diluted with saline to obtain the desired concentrations for animal experiments.
# Twelve male SD rats were randomly divided into two groups with six rats each, one for oral administration and the other for inhalation administration. […] Blood samples of approximately 200 μL were collected via intravenous routes at pre-determined time points: before administration and at 5, 15, 30, and 45 min, and 1, 2, 4, 6, and 8 h post-administration. The blood samples were immediately placed in heparinized EP tubes and kept on ice. […] The specific method of intratracheal administration is depicted in Figure 1, and details of the administration process are provided in the Supplementary Materials (Supplementary Figure S2). Blood samples of about 200 μL were collected at time points before administration and at 2, 5, 15, and 30 min, and 1, 2, 4, 6, 8, 12, and 24 h post-administration, also placed in heparinized EP tubes and kept on ice. The whole blood samples were centrifuged at 4 °C at 5000× g for 10 min within 30 min of collection. The plasma was then separated, aliquoted, and stored at −40 °C until analysis.
# The major pharmacokinetic parameters including elimination half-life (t1/2), time to reach peak concentration (Tmax), peak concentration (Cmax), area under the curve (AUC), and mean residence time (MRT) were calculated using Phoenix WinNonlin software (Version 8.2, Certara, Radnor, PA, USA). A non-compartmental model was employed for these calculations, which is suitable for analyzing drug concentration data over time without assuming a specific compartmental structure. Graph Prism 8 was utilized to create graphs and plots that illustrate the pharmacokinetic behavior of the compounds of interest. Statistical analysis was performed using IBM SPSS Statistics 26 to conduct a t-test on the dose-normalized AUC(0−t) values from the two different administration groups. […] The results were considered statistically significant at a p-value less than 0.05, indicating a difference between the groups.
# [2] = Stability of spiked rat plasma QC samples under storage conditions; type: in vitro ADME; details: for Stability, Accuracy (%): rat plasma, mean ± SD, n = 3; for stability of rat plasma samples under storage conditions: room temperature 4 h, 4 °C 8 h, −40 °C 7 days, three freeze–thaw cycles
# [3] = oral curcumin in rats; cited from earlier work
# Caco-2 cell model = details: cited from earlier work
# [4] = rat plasma, i.t. curcumin 10 mg/kg (27.17 μmol/kg), mean ± SD, n = 6
# [5] = rat plasma, i.t. curcumin 10 mg/kg, dose-normalized to oral dose (inhalation/0.5)
# [6] = rat plasma, p.o. curcumin 20 mg/kg (54.34 μmol/kg), mean ± SD, n = 6
# [7] = 6 ng/mL, freeze-thaw three cycles
# [8] = 6 ng/mL, room temperature for 4 h
# [9] = 60 ng/mL, freeze-thaw three cycles
# [10] = 60 ng/mL, room temperature for 4 h
# [11] = 320 ng/mL, freeze-thaw three cycles
# [12] = 320 ng/mL, room temperature for 4 h
# [13] = male, Sprague-Dawley, rat, plasma, inhaled or intranasal, 10 mg/kg
Structure (SMILES),"AUC(0–t) [1, 4] [µM·h]","AUC(0–∞) [1, 4] [µM·h]","Cmax [1, 4] [nM]","MRT(0–t) [1, 4] [h]","Tmax [1, 4] [h]","t1/2 [1, 4] [h]","AUC(0–t)/0.5 [1, 5] [µM·h]","AUC(0–t) [1, 6] [µM·h]","Stability, Accuracy (%) ([2]; 6 ng/mL, 4 ℃ for 8 h)","Stability, Accuracy (%) ([2]; 6 ng/mL, 40 ℃ for 7 d)","Stability, Accuracy (%) [2, 7] [%]","Stability, Accuracy (%) [2, 8] [%]","Stability, Accuracy (%) ([2]; 60 ng/mL, 4 ℃ for 8 h)","Stability, Accuracy (%) ([2]; 60 ng/mL, 40 ℃ for 7 d)","Stability, Accuracy (%) [2, 9] [%]","Stability, Accuracy (%) [2, 10] [%]","Stability, Accuracy (%) ([2]; 320 ng/mL, 4 ℃ for 8 h)","Stability, Accuracy (%) ([2]; 320 ng/mL, 40 ℃ for 7 d)","Stability, Accuracy (%) [2, 11] [%]","Stability, Accuracy (%) [2, 12] [%]",also measured
COc1cc(/C=C/C(=O)CC(=O)/C=C/c2ccc(O[C@@H]3O[C@H](C(=O)O)[C@@H](O)[C@H](O)[C@H]3O)c(OC)c2)ccc1O [COG],0.8863 ± 0.1783,0.9189 ± 0.1678,521 ± 203,4.33 ± 1.69,0.25 ± 0.00,3.10 ± 0.95,1.772 ± 0.3566,1.68 ± 0.2441,88.10±4.59,104.10±7.03,89.23±3.79,90.20±4.16,90.43±2.97,87.13±2.10,87.93±2.81,95.53±2.01,93.60±2.52,88.93±0.99,87.87±2.32,95.73±2.23,"exposure relative to COS ([1]; rat plasma, oral dosing of 20 mg/kg curcumin): 30–40 times; AUC(0–∞) [1, 6]: 1.73 ± 0.2565 µM·h; Cmax [1, 6]: 830 ± 158 nM; MRT(0–t) [1, 6]: 2.54 ± 0.29 h; Tmax [1, 6]: 0.54 ± 0.71 h; t1/2 [1, 6]: 1.74 ± 0.57 h; stability of rat plasma samples under storage conditions [2]: stable"
COc1cc(/C=C/C(=O)CC(=O)/C=C/c2ccc(OS(=O)(=O)O)c(OC)c2)ccc1O [COS],1.377 ± 0.6043,1.444 ± 0.6249,416 ± 138,5.14 ± 1.03,0.38 ± 0.14,5.02 ± 1.27,2.754 ± 1.208,0.04978 ± 0.02714,100.63±2.40,90.73±1.36,93.73±4.97,99.67±4.83,93.27±2.31,94.53±0.40,93.23±0.96,96.63±1.39,99.23±1.50,92.43±5.58,93.80±0.46,100.77±0.65,"exposure, AUC(0–t)/0.5 intratracheal relative to AUC(0–t) oral ([1]; rat plasma, i.t. 10 mg/kg dose-normalized vs p.o. 20 mg/kg): ~50 fold; AUC(0–∞) [1, 6]: 0.0577 ± 0.02778 µM·h; Cmax [1, 6]: 23.4 ± 9.4 nM; MRT(0–t) [1, 6]: 2.37 ± 0.98 h; Tmax [1, 6]: 1.13 ± 0.96 h; t1/2 [1, 6]: 1.11 ± 0.87 h; stability of rat plasma samples under storage conditions [2]: stable"
"COc1cc(/C=C/C(=O)CC(=O)/C=C/c2ccc(O)c(OC)c2)ccc1O [CUR, Curcumin]",–,–,–,–,–,–,–,–,96.00±2.57,105.13±4.11,102.33±7.46,92.53±2.91,97.73±0.83,97.40±0.36,95.20±2.19,98.57±2.22,102.67±0.06,93.87±3.21,90.10±4.20,103.93±1.07,"AUC(0-inf) [1, 13]: 1.38 ± 0.37 µM·h; Cmax [1, 13]: 2880 ± 742 nM; half-life [1, 13]: 3.73 ± 1.03 h; AUC(0-t) ([1]; male, Sprague-Dawley, rat, plasma, inhaled or intranasal, 10 mg/kg, rat plasma, i.t. curcumin 10 mg/kg (27.17 μmol/kg), mean ± SD, n = 6, read-out: AUC(0–t)): 1.33 ± 0.374 µM·h; AUC(0-t) ([1]; male, Sprague-Dawley, rat, plasma, inhaled or intranasal, 10 mg/kg, rat plasma, i.t. curcumin 10 mg/kg, dose-normalized to oral dose (inhalation/0.5), read-out: AUC(0–t)/0.5): 2.65 ± 0.749 µM·h; MRT last ([1]; male, Sprague-Dawley, rat, plasma, inhaled or intranasal, 10 mg/kg, read-out: MRT(0–t)): 2.01 ± 0.78 h; Tmax ([1]; male, Sprague-Dawley, rat, plasma, inhaled or intranasal, 10 mg/kg, read-out: Tmax): 0.05 ± 0.03 h; AUC(0-t) ([1]; male, Sprague-Dawley, rat, plasma, po, 20 mg/kg, rat plasma, p.o. curcumin 20 mg/kg, calculated using the lower limit of quantification over 6 h, read-out: AUC(0–t)): < 0.0326 µM·h; plasma levels of the parent compound (below lower limit of quantification) ([1]; rat plasma, oral dosing of 20 mg/kg curcumin, 20 mg/kg): < 2 ng/mL and < 5.434 nM; bioavailability [3]: less than 1%; Papp (Caco-2 cell model): 3.18 ± 1.08 × 10^−6 cm/s"

# Source: article PMC11597260 (Pharmaceutics, 2024)
